From patent US12329741B2, “HBV inhibitor and its use” (priority 2019, dated 2025)

Assays:
[1] = Cytotoxicity test (Cell-titer Blue method) in HepG2.2.15 cells; type: cell-based; conditions: human, six days after treatment, highest concentration tested 100 μM, read-out: HepG2.2.15 cell viability CC50
Text: (§1) In this experiment, real-time fluorescent quantitative PCR (qPCR) method was used to detect the content of HBV DNA in the supernatant of HepG2.2.15 cells to determine the anti-hepatitis B virus activity of the compound in HepG2.2.15 cells, and to detect cell viability impact of the test compound against HepG2.2.15 by Cell-titer Blue method. In the experiment, entecavir (ETV) was used as a reference compound to monitor the quality of the experiment.
The compound concentration, plate layout, and compound treatment process are consistent with the antiviral experiments. In six days after the cells were treated with the compound, the cell viability was measured with Cell-titer Blue.
Analyze the data and calculate relative cell viability: Use the following formula to calculate the percentage of cell viability: % Cell viability=(sample fluorescence reading-fluorescence reading of culture medium control)/(fluorescence reading of DMSO control-fluorescence reading of the culture medium control)×100.
Finally, GraphPad Prism software was used to calculate the CC50 value of the compound.

[2] = system: hepatitis B virus (HBV); assay: Anti-hepatitis B virus activity: HBV DNA in supernatant of HepG2.2.15 cells by qPCR; type: cell-based; conditions: 192 h, supernatant collected on day 8
Text: as §1
On day 1, the cells were planted into a 96-well plate, the compound was added to treat the cells on day 2, a new culture medium containing the compound was replaced on day 5, and the supernatant was collected on day 8 to extract DNA. Quantitative PCR was used to detect the content of HBV DNA. Both the test compound and the control compound were diluted in a series of 3 times with 8 concentration points, and 2 replicate wells were measured in parallel. The final concentration of DMSO in the culture medium is 0.5%.
The calculation formula of the inhibition percentage is as follows: % inh.=(1-HBV copy number of sample/HBV copy number of 0.5% DMSO control)×100
EC50 was analyzed by Graphpad Prism software (four parameter logistic equations).

Structure (SMILES) | CC50 at 6 days [1] [µM] | EC50 [2] [µM]
C#CCNC(=O)C(=O)c1c(C)c(C(=O)Nc2ccc3oncc3c2)n(C)c1C [Compound 74, 1,3,5-Trimethyl-2-amide-N-(benzisoxazol-5-yl)-4-(2-propargylamino-oxalyl)-pyrrole] | > 100 | 0.5 to 5
CC#CCNC(=O)C(=O)c1cc(C(=O)Nc2ccc(F)c(Cl)c2)c(C)o1 [Compound 5, 2-Methyl-3-amide-N-(3-chloro-4-fluorophenyl)-5-(2-(2-alkynylbutylamino)-oxalyl)-furan] | > 100 | 5 to 50
C#CCNC(=O)C(=O)c1cc(C(=O)Nc2ccc(F)c(Cl)c2)c(C)s1 [Compound 30, 2-Methyl-3-amide-N-(3-chloro-4-fluorophenyl)-5-(2-propargylamino-oxalyl)-thiophene] | > 100 | 0.5 to 5
Cc1oc(C(=O)C(=O)NC(C)(C)C)cc1C(=O)Nc1ccc(F)c(C#N)c1 [Compound 21] | > 100 | 0.5 to 5
Cc1sc(C(=O)C(=O)NC(C)(C)C)cc1C(=O)Nc1cc(F)c(F)c(F)c1 [Compound 35, 2-Methyl-3-amide-N-(3,4,5-trifluorophenyl)-5-(2-tert-butylamino-oxalyl)-thiophene] | > 100 | 0.5 to 5
Cc1oc(C(=O)C(=O)NCC#Cc2ccccc2)cc1C(=O)Nc1ccc(F)c(Cl)c1 [Compound 7, 2-Methyl-3-amide-N-(3-chloro-4-fluorophenyl)-5-(2-(3-phenyl-2-eynylpropylamino)-oxalyl)-furan] | 29 | > 50
C#CCNC(=O)C(=O)c1c(C)c(C(=O)Nc2ccc3c(c2)ncn3C)n(C)c1C [Compound 72, 1,3,5-Trimethyl-2-amide-N-(1-methyl-1H-benzimidazol-5-yl)-4-(2-propargylamino-oxalyl)-Pyrrole] | > 100 | 0.5 to 5
C#CC1(NC(=O)C(=O)c2c(C)c(C(=O)Nc3ccc4occc4c3)n(C)c2C)CC1 [Compound 55, 1,3,5-Trimethyl-2-amide-N-(benzofuran-5-yl)-4-(2-(1-ethynylcyclopropane-1-amino)-oxalyl)-Pyrrole] | > 100 | ≤ 0.05
Cc1c(C(=O)C(=O)Nc2nccs2)c(C)n(C)c1C(=O)Nc1ccc2occc2c1 [Compound 59, 1,3,5-Trimethyl-2-amide-N-(benzofuran-5-yl)-4-(2-(thiazol-2-amino)-oxalyl)-pyrrole] | > 100 | ≤ 0.05
C#CCNC(=O)C(=O)c1c(C)c(C(=O)Nc2ccc3c(cnn3C)c2)n(C)c1C [Compound 73, 1,3,5-trimethyl-2-amide-N-(1-methyl-1H-indazol-5-yl)-4-(2-propargylamino-oxalyl)-pyrrole] | > 100 | 0.5 to 5
Cc1oc(C(=O)C(=O)NC(C)(C)C)c(Cl)c1C(=O)Nc1cc(F)c(F)c(F)c1 [Compound 49, 2-Methyl-3-amide-N-(3,4,5-trifluorophenyl)-4-chloro-5-(2-tert-butylamino-oxalyl)-furan] | 47 | 5 to 50
Cc1oc(C(=O)C(=O)NC(C)(C)C)cc1C(=O)Nc1ccc(F)cc1 [Compound 18, 2-Methyl-3-amide-N-(4-fluorophenyl)-5-(2-tert-butylamino-oxalyl)-furan] | > 100 | 0.5 to 5
C#CCNC(=O)C(=O)c1c(C)c(C(=O)Nc2ccc3scnc3c2)n(C)c1C [Compound 70, 1,3,5-Trimethyl-2-amide-N-(benzothiazol-5-yl)-4-(2-propargylamino-oxalyl)-pyrrole] | > 100 | 0.5 to 5
Cc1c(C(=O)C(=O)NC2(c3c[nH]nn3)CC(F)(F)C2)c(C)n(C)c1C(=O)Nc1ccc2occc2c1 [Compound 77, 1,3,5-trimethyl-2-amide-N-(benzofuran-5-yl)-4-(2-(3,3-difluoro-1-(1H-1,2,3-Triazol-4-yl)cyclobutane-1-amino)-oxalyl)-pyrrole] | > 100 | ≤ 0.05
C=CCn1cc(CNC(=O)C(=O)c2cc(C(=O)Nc3ccc(F)c(Cl)c3)c(C)o2)nn1 [Compound 10, 2-Methyl-3-amide-N-(3-chloro-4-fluorophenyl)-5-(2-(1-allyl-1H[1,2,3]-triazole-4-methylamino)-oxalyl)-furan] | > 100 | > 50
Cc1oc(C(=O)C(=O)NCC#CC(C)C)cc1C(=O)Nc1ccc(F)c(Cl)c1 [Compound 6, 2-Methyl-3-amide-N-(3-chloro-4-fluorophenyl)-5-(2-(4-methyl-2-ynylpentylamino)-oxalyl)-furan] | 82 | 5 to 50

Structure (SMILES) | CC50 at 6 days [1] [µM] | EC50 [2] [µM]
CNC(=O)C1(NC(=O)C(=O)c2c(C)c(C(=O)Nc3ccc4occc4c3)n(C)c2C)CC(F)(F)C1 [Compound 60, 1,3,5-Trimethyl-2-amide-N-(benzofuran-5-yl)-4-(2-(N-methyl-1-carboxamide-3,3-difluorocyclobutane-1-amine)-oxalyl)-pyrrole] | > 100 | ≤ 0.05
C#CC(C)NC(=O)C(=O)c1cc(C(=O)Nc2ccc(F)c(Cl)c2)c(C)o1 (stereo not shown) [Compound 3, 2-Methyl-3-amide-N-(3-chloro-4-fluorophenyl)-5-(2-(1-methylpropynamido)-oxalyl)-furan] | > 100 | 0.5 to 5
Cc1oc(C(=O)C(=O)NC(C)(C)C)cc1C(=O)Nc1ccc(C(F)(F)F)cc1 [Compound 22, 2-Methyl-3-amide-N-(4-trifluoromethylphenyl)-5-(2-tert-butylamino-oxalyl)-furan] | > 100 | > 50
C#CCNC(=O)C(=O)c1c(C)c(C(=O)Nc2ccc3nccnc3c2)n(C)c1C [Compound 67, 1,3,5-Trimethyl-2-amide-N-(quinoxalin-6-yl)-4-(2-propargylamino-oxalyl)-pyrrole] | > 100 | 0.5 to 5
Cc1sc(C(=O)C(=O)NC(C)(C)C)cc1C(=O)Nc1ccc(F)c(Cl)c1 [Compound 29, 2-Methyl-3-amide-N-(3-chloro-4-fluorophenyl)-5-(2-tert-butylamino-oxalyl)-thiophene] | > 100 | 0.05 to 0.5
C#CCNC(=O)C(=O)c1c(C)c(C(=O)Nc2ccc3ccccc3c2)n(C)c1C [Compound 66, 1,3,5-Trimethyl-2-amide-N-(naphthalen-2-yl)-4-(2-propargylamino-oxalyl)-pyrrole] | > 100 | 0.05 to 0.5
C#Cc1cc(NC(=O)c2cc(C(=O)C(=O)NC(C)(C)C)oc2C)ccc1F [Compound 27, 2-Methyl-3-amide-N-(3-alkynyl-4-fluorophenyl)-5-(2-tert-butylamino-oxalyI)-furan] | > 100 | 5 to 50
Cc1c(C(=O)C(=O)NC(C)(C)c2c[nH]nn2)c(C)n(C)c1C(=O)Nc1ccc2occc2c1 [Compound 78, 1,3,5-trimethyl-2-amide-N-(benzofuran-5-yl)-4-(2-(2-(1H-1,2,3-triazole-4-yl)-2-propylamino)-oxalyl)-pyrrole] | > 100 | ≤ 0.05
Cc1sc(C(=O)C(=O)NC(C)(C)C)cc1C(=O)Nc1ccc(F)c(F)c1 [Compound 34, 2-Methyl-3-amide-N-(3,4-difluorophenyl)-5-(2-tert-butylamino-oxalyl)-thiophene] | > 100 | 0.05 to 0.5
COCC1(NC(=O)C(=O)c2sc(C)c(C(=O)Nc3ccc4occc4c3)c2C)COC1 [Compound 41] | > 100 | ≤ 0.05
Cc1c(C(=O)C(=O)NC(C)(C)C)coc1C(=O)Nc1ccc(F)c(Cl)c1 [Compound 83, 2-Amide-N-(3-chloro-4-fluoro-phenyl)-3-methyl-4-(2-tert-butylamino-oxalyl)-furan] | > 100 | > 50
C#CC(C)(C)NC(=O)C(=O)c1sc(C)c(C(=O)Nc2ccc3occc3c2)c1C [Compound 39, 2,4-Dimethyl-3-amide-N-(benzofuran-5-yl)-5-(2-(1,1-dimethylpropynamido)-oxalyl)-Thiophene] | > 100 | ≤ 0.05
Cc1oc(C(=O)C(=O)NCc2c[nH]nn2)cc1C(=O)Nc1ccc(F)c(Cl)c1 [Compound 17, 2-Methyl-3-amide-N-(3-chloro-4-fluorophenyl)-5-(2-(1H-1,2,3-triazole-4-methylamino)-oxalyl)-furan] | > 100 | 5 to 50
C#CCNC(=O)C(=O)c1c(C)c(C(=O)Nc2ccc3ncccc3c2)n(C)c1C [Compound 68, 1,3,5-Trimethyl-2-amide-N-(quinolin-6-yl)-4-(2-propargylamino-oxalyl)-pyrrole] | > 100 | 0.5 to 5
C#CC(C)(C)NC(=O)C(=O)c1cc(C(=O)Nc2ccc(F)c(Cl)c2)c(C)o1 [Compound 4, 2-Methyl-3-amide-N-(3-chloro-4-fluorophenyl)-5-(2-(1,1-dimethylpropynamido)-oxalyl)-furan] | > 100 | 0.5 to 5
Cc1c(C(=O)C(=O)NC(C)C(F)(F)F)c(C)n(C)c1C(=O)Nc1ccc2occc2c1 (stereo in doubt) [Compound 56, 1,3,5-Trimethyl-2-amide-N-(benzofuran-5-yl)-4-(2-((S)-1,1,1-trifluoropropane-2-Amino)-oxalyl)-pyrrole] | > 100 | ≤ 0.05
